17 compounds from ChEMBL document CHEMBL1131057, “Peptidomimetic growth hormone secretagogues. Design considerations and therapeutic potential” (J Med Chem, 1998) can be followed below.

Where a SMILES comes first, the peptide text is derived from it. [ ]: non-standard residue; d: D form. dTrp(2-Me) = Cc1[nH]c2ccccc2c1C[C@@H](N)C(=O)O; Trp(2-Me) = Cc1[nH]c2ccccc2c1C[C@H](N)C(=O)O; d2Nal = N[C@H](Cc1ccc2ccccc2c1)C(=O)O; 3Amb = NCc1cccc(C(=O)O)c1; GABA = NCCCC(=O)O

The species entered for data set [1] is Rattus norvegicus. Description: compound was evaluated for GH release in the rat pituitary cell culture assay. It is filed as functional. Conditions: Pituitary gland cell.
The test system of data set [2] is Rattus norvegicus. Nature of the data set: Compound was measured for elevated levels of GH release in infant rats after administration subcutaneously at 300 ug/kg. It is filed as functional, organism-based.
Data set [3] in a line: Compound was evaluated for percentage of Oral bioavailability in rats. Conditions: rat, in vivo, read-out: Bioavailabiility. In kind it is ADME, organism-based.
The species entered for data set [4] is Rattus norvegicus. Nature of the data set: In vitro efficacy was evaluated for growth hormone release.
The species named for data set [5] is Rattus norvegicus. Nature of the data set: compound was evaluated for GH release in rat. In kind it is functional, organism-based.
Data set [6] relates to Rattus norvegicus. Description: Compound was tested for effective dose rquired for GH release following iv administration to 4-week old anesthetized Sprague-Dawley rats. In kind it is functional.
The target of data set [7] is Growth hormone secretagogue receptor type 1 (Homo sapiens, UniProt Q92847). Description: Compound was evaluated for GH release for effect on human GH secretagogue receptor. In kind it is functional.
Growth hormone secretagogue receptor type 1, sequence (Q92847 whole entry): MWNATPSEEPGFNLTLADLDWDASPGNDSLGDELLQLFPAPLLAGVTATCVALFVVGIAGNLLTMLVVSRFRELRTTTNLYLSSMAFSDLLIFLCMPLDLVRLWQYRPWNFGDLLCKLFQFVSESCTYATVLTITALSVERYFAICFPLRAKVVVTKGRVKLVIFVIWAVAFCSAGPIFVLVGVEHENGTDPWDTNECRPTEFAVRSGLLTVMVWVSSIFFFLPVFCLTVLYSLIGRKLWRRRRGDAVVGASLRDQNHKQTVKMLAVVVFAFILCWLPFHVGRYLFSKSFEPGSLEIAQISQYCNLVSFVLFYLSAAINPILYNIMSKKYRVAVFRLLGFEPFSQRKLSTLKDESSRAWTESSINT
The next data set deals with T1, Oxytocin receptor (Homo sapiens, UniProt P30559).
T1 sequence (P30559 whole entry): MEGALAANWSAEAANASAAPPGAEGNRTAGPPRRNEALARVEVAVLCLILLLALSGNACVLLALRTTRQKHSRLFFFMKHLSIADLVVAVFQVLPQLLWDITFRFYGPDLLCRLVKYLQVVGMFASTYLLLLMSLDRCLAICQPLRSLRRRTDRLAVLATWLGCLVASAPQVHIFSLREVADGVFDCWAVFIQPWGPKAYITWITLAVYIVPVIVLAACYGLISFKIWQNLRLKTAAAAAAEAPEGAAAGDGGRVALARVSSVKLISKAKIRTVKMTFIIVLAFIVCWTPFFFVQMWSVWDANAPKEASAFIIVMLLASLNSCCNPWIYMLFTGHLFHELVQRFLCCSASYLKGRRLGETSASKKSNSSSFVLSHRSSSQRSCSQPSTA
Description: Antagonistic activity against Oxytocin receptor. It is filed as functional.

The test system of data set [8] is Rattus norvegicus. Nature of the data set: Compound was evaluated for GH releasing properties after iv administration to infant rats. It is filed as functional, organism-based.
The species entered for data set [9] is Rattus norvegicus. Description: compound was evaluated for GH release in the rat. It is filed as functional, organism-based.
Data set [10] is filed under the species Rattus norvegicus. Nature of the data set: In Vitro evaluation for growth hormone release from the pituitary incubates. It is filed as functional.
The subject of data set [11] is Rattus norvegicus. Description: In Vivo efficacy was evaluated for growth hormone release. In kind it is functional, organism-based.

Broadly, the EC50 is the concentration needed to bring the measured effect to its halfway point. Read a high EC50 as a less potent agent. On to `CNC(=O)Nc1ccccc1-c1ccc2c(c1)CCN(C(=O)[C@@H](Cc1c[nH]c3ccccc13)NC(=O)C(C)(C)N)C2`, for which the midpoint of the response in the data set filed under Rattus norvegicus [1], the EC50, lay at 100 nM.
On the same count and under the same terms, the same measure for `C[C@@H]1CNC(C)(C)CC(=O)N[C@@H]2CCc3ccccc3N(Cc3ccc(cc3)-c3ccccc3C(=O)NCCCC(=O)O1)C2=O`: 21 nM.
Take `Cc1[nH]c2ccccc2c1C[C@H](NC(=O)[C@@H](Cc1c(C)[nH]c2ccccc12)NC(=O)[C@@H](Cc1c(C)[nH]c2ccccc12)NC(=O)CCCN)C(=O)N[C@@H](CCCCN)C(N)=O` (H-[GABA][dTrp(2-Me)][dTrp(2-Me)][Trp(2-Me)]K-NH2): in the data set on Rattus norvegicus [2], the Concentration is 200 ng/mL.
In the case of `CC(C)(N)CC(=O)N[C@@H]1CCc2c(ccc3ccccc23)N(Cc2ccc(-c3ccccc3-c3nn[nH]n3)cc2)C1=O`, the bioavailability in [3] was less than 5%. In the data set filed under Rattus norvegicus [4], this compound came in with an EC50 of 4 nM.
Consider `C[C@H](N)C(=O)N[C@@H](Cc1c[nH]cn1)C(=O)N[C@H](Cc1ccc2ccccc2c1)C(=O)N[C@@H](C)C(=O)N[C@@H](Cc1c[nH]c2ccccc12)C(=O)N[C@H](Cc1ccccc1)C(=O)N[C@@H](CCCCN)C(N)=O` (H-AH[d2Nal]AW[dF]K-NH2), for which it took 6 nM to reach a half-maximal effect in the data set listed under Rattus norvegicus [5] (EC50).
The ED50 is the midpoint of the dose-response relation. A higher ED50 goes with weaker potency. In turn, `CN(C)S(=O)(=O)c1ccc2c(c1)CN(C(=O)[C@@H](Cc1c[nH]c3ccccc13)NC(=O)C(C)(C)N)CC2` had a concentration for a half-maximal effect (EC50) in the data set filed under Rattus norvegicus [1] of 30 nM. For the same compound, the 50% effect level in the data set on Rattus norvegicus [6] (ED50) was put at a dose of 3 mg/kg.
In the case of `NC(=O)CN(CCc1ccccc1)C(=O)[C@@H](Cc1ccc2ccccc2c1)NC(=O)[C@@H](Cc1ccc2ccccc2c1)NC(=O)C1CCNCC1`, it took 0.34 nM to reach a half-maximal effect in data set [7] (EC50).
As for `NCCCC[C@H](NC(=O)[C@@H](Cc1ccccc1)NC(=O)[C@@H](Cc1ccc2ccccc2c1)NC(=O)c1cccc(CN)c1)C(N)=O` (H-[3Amb][d2Nal][dF]K-NH2), the EC50 in the data set filed under Rattus norvegicus [1] was 7 nM.
A word on the IC50: it is the concentration at which inhibition is half-maximal. Low values mean higher potency, high ones lower potency. In the case of `CC1(C)C2CCC1(CS(=O)(=O)N1CCC3(CCc4ccccc43)CC1)C(NC(=O)C1CCCNC1)C2` [L-368112], on Oxytocin receptor, the IC50 was found to be 68 nM. In addition, in the data set filed under Rattus norvegicus [4], the 50% effective concentration (EC50) came to 300 nM.
On to `Cc1ccc(S(=O)(=O)Nc2ccc3c(c2)CCN(C(=O)[C@@H](Cc2c[nH]c4ccccc24)NC(=O)C(C)(C)N)C3)cc1`, for which the concentration for a half-maximal effect (EC50) in the data set listed under Rattus norvegicus [1] stood at 3 nM. The ED50 in the data set on Rattus norvegicus [6] was greater than 10 mg/kg.
`Cc1[nH]c2ccccc2c1C[C@@H](NC(=O)CCCN)C(=O)N[C@H](Cc1ccc2ccccc2c1)C(=O)N[C@@H](Cc1ccccc1)C(=O)N[C@@H](CCCCN)C(N)=O` (H-[GABA][dTrp(2-Me)][d2Nal]FK-NH2) came in with a Concentration in the data set on Rattus norvegicus [8] of 198 ng/mL.
As for `O=C(N[C@H](Cc1ccc2ccccc2c1)C(=O)N[C@@H](CO)Cc1c[nH]c2ccccc12)C1CCNCC1`, the concentration for a half-maximal effect (EC50) in the data set listed under Rattus norvegicus [1] came to 10.6 nM.
For the compound `NCCCC[C@H](NC(=O)[C@H](Cc1ccccc1)NC(=O)[C@@H](Cc1ccc2ccccc2c1)NC(=O)[C@@H](Cc1ccc2ccccc2c1)NC(=O)C1CCNCC1)C(N)=O`, the EC50 in the data set filed under Rattus norvegicus [9] was 0.18 nM.
In the data set filed under Rattus norvegicus [4], `CC(C)(CC(=O)N[C@@H]1CCc2ccccc2N(Cc2ccc(-c3ccccc3C(N)=O)cc2)C1=O)NC[C@H](O)CO` registered an EC50 of 3 nM.
As to `CNC(=O)Nc1ccccc1-c1ccc(CN2C(=O)[C@H](NC(=O)CC(C)(C)N)CCc3ccccc32)cc1`, the concentration for a half-maximal effect (EC50) in the data set listed under Rattus norvegicus [1] was 50 nM.
In the case of `CSCC[C@@H](NC(=O)[C@H](Cc1ccccc1)NC(=O)CNC(=O)[C@H](Cc1ccccc1)NC(=O)[C@@H](N)Cc1ccc(O)cc1)C(N)=O`, the Concentration in the data set listed under Rattus norvegicus [10] is 10 µg/mL.
In the data set with Rattus norvegicus [11], `CC(C)(N)CC(=O)NC1CCc2ccccc2N(Cc2ccc(-c3ccccc3C(=O)O)cc2)C1=O` (stereo unspecified) returned an EC50 of 3000 nM.
